Details: Coaxial cylinder method

CCC [propane]
thermal conductivity [W/m/K]
Details | 365.72 K | 366.45 K
3595 kPa, Gas | – | 0.03694
3610 kPa, Gas | – | 0.0371
3880 kPa, Gas | – | 0.04193
3882 kPa, Gas | – | 0.04198
3908 kPa, Gas | – | 0.04282
3915 kPa, Gas | – | 0.04316
3920 kPa, Gas | – | 0.04339
3925 kPa, Gas | – | 0.04359
3930 kPa, Gas | – | 0.04383
3935 kPa, Gas | – | 0.04406
3937 kPa, Gas | – | 0.04421
3949 kPa, Gas | – | 0.04486
3950 kPa, Gas | – | 0.04487
3951 kPa, Gas | – | 0.04497
3952 kPa, Gas | – | 0.04502
3953 kPa, Gas | – | 0.04507
3954 kPa, Gas | – | 0.04513
3955 kPa, Gas | – | 0.04847
3956 kPa, Gas | – | 0.0498
3957 kPa, Gas | – | 0.0512
3958 kPa, Gas | – | 0.05294
3959 kPa, Gas | – | 0.05452
3960 kPa, Gas | – | 0.05651
3961 kPa, Gas | – | 0.05848
3962 kPa, Gas | – | 0.06058
3963 kPa, Gas | – | 0.06307
3964 kPa, Gas | – | 0.06573
3965 kPa, Gas | – | 0.06816
3966 kPa, Gas | – | 0.07114
3967 kPa, Gas | – | 0.07411
3968 kPa, Gas | – | 0.07748
3969 kPa, Gas | – | 0.08195
3970 kPa, Gas | – | 0.08706
3971 kPa, Gas | – | 0.09339
3972 kPa, Gas | – | 0.09783
3973 kPa, Gas | – | 0.1017
3974 kPa, Gas | – | 0.108
3975 kPa, Gas | – | 0.114
3976 kPa, Gas | – | 0.1185
3977 kPa, Gas | – | 0.1239
3978 kPa, Gas | – | 0.1288
3978 kPa, Liquid | 0.08613 | –
3979 kPa, Gas | – | 0.1341
3979 kPa, Liquid | 0.08495 | –
3980 kPa, Gas | – | 0.1393
3980 kPa, Liquid | 0.08381 | –
3981 kPa, Gas | – | 0.1449
3982 kPa, Gas | – | 0.1502
3983 kPa, Gas | – | 0.1559
3984 kPa, Gas | – | 0.1614
3985 kPa, Gas | – | 0.1661
3985 kPa, Liquid | 0.07882 | –
3986 kPa, Gas | – | 0.1732
3987 kPa, Gas | – | 0.1794
3988 kPa, Gas | – | 0.1853
3989 kPa, Gas | – | 0.1916
3990 kPa, Gas | – | 0.1977
3990 kPa, Liquid | 0.07478 | –
3991 kPa, Gas | – | 0.2045
3992 kPa, Gas | – | 0.2108
3993 kPa, Gas | – | 0.2174
3994 kPa, Gas | – | 0.224
3995 kPa, Gas | – | 0.2309
3995 kPa, Liquid | 0.07164 | –
3996 kPa, Gas | – | 0.2389
3997 kPa, Liquid | – | 0.2535
3998 kPa, Liquid | – | 0.2389
3999 kPa, Liquid | – | 0.2261
4000 kPa, Liquid | 0.06921 | 0.2153
4001 kPa, Liquid | – | 0.2051
4002 kPa, Liquid | – | 0.196
4003 kPa, Liquid | – | 0.1879
4004 kPa, Liquid | – | 0.1801
4005 kPa, Liquid | – | 0.1734
4006 kPa, Liquid | – | 0.1669
4007 kPa, Liquid | – | 0.1612
4008 kPa, Liquid | – | 0.1563
4009 kPa, Liquid | – | 0.1513
4010 kPa, Liquid | 0.066 | 0.1467
4011 kPa, Liquid | – | 0.1425
4012 kPa, Liquid | – | 0.1387
4014 kPa, Liquid | 0.06521 | –
4020 kPa, Liquid | 0.06438 | –
4025 kPa, Liquid | 0.06418 | –
4030 kPa, Liquid | 0.06394 | –
4035 kPa, Liquid | 0.06394 | –
4040 kPa, Liquid | 0.06389 | –
4045 kPa, Liquid | 0.06389 | –
4050 kPa, Liquid | 0.06389 | –
4055 kPa, Liquid | 0.06385 | –
4060 kPa, Liquid | 0.06385 | –
4080 kPa, Liquid | 0.06377 | –
4100 kPa, Liquid | 0.06375 | –
4120 kPa, Liquid | 0.06375 | –
4140 kPa, Liquid | 0.06377 | –
4160 kPa, Liquid | 0.06377 | –
4180 kPa, Liquid | 0.06377 | –
4200 kPa, Liquid | 0.06381 | –
4250 kPa, Liquid | 0.06392 | –
4275 kPa, Liquid | 0.06396 | –
4350 kPa, Liquid | 0.06412 | –
4400 kPa, Liquid | 0.06428 | –
4450 kPa, Liquid | 0.06442 | –
4500 kPa, Liquid | 0.06459 | –
4560 kPa, Liquid | 0.06484 | –
4580 kPa, Liquid | 0.0649 | –
4670 kPa, Liquid | 0.06519 | –
4690 kPa, Liquid | 0.06519 | –

Reference: the NIST ThermoML archive (doi:10.1016/j.fluid.2017.06.019)
